Assays:
[1] = Pharmacokinetics of VCM after intravenous administration to control and PN rats; details: 5 mg/kg intravenous bolus, two-compartment model, plasma LC/MS/MS
Description: (§1) Briefly, 3 days before the start of PN administration, cardiac catheterization was performed via the right jugular vein with a polyurethane catheter (0.6-mm ID, 0.9-mm OD, Primetech Co., Tokyo, Japan) in rats anesthetized with sodium pentobarbital, and given ampicillin for prevention of infection and local bupivacaine for pain relief. The cannulated rats were housed individually in cages with free access to food and water, and received saline at a rate of 0.1 mL/h for 3 days via the catheter with a syringe pump (ISIS Co., Ltd., Osaka, Japan), and daily ampicillin (2 mg/kg, 2-min infusion) for recovery from surgery. For PN administration, infusion of PN solution was started at a rate of 1.25 mL/h for 2 days under fasting and water-deprived conditions; PN solution consisting of glucose, amino acids, electrolytes, and vitamins (approximately 0.97 kcal/mL) was prepared by mixing PNTWIN No. 3 with VITAJECT (Fukushima et al. [2015]). Subsequently, PN administration was performed at a rate of 2.5 mL/h (viz., 60 mL/day, 58 kcal/day) for 7 days; likewise, the sham operated rats (control rats) underwent the same regimen with saline and allowed free access to food throughout the treatment.
(§2) Blood samples were taken 5, 15, 30, 45, 60, 90, 120, 180, 240, and 360 min after administration, and were centrifuged at 12,000 rpm for 15 min to collect the plasma fraction. In the intraduodenal administration study, the abdominal cavity was opened in anesthetized rats and the stomach was exposed. […] After administration, the incision was closed with a tissue adhesive and the pylorus was ligated. Blood samples were taken 5, 15, 30, 60, 90, 120, 180, 240, 300, and 360 min after administration, and plasma samples were collected by centrifugation. The collected plasma samples in both studies were immediately frozen at −80 °C until analysis.
(§3) After vortexing and centrifugation at 12,000 rpm for 15 min, the supernatant was diluted in 340 µL of distilled water and was passed through a filter, and 10 µL of the filtrate was injected into a Quattro Ultima LC/MS/MS system with a 2690 Separation Module (Waters Co, MA, UK). […] Mass spectrometry was conducted with electrospray ionization in positive mode (ESI+) under the following conditions: source temperature, 130 °C; cone voltage, 35 V; capillary voltage, 4.0 kV.
(§4) All pharmacokinetic analyses were performed using WinNonlin® Version 6.3 (Pharsight, Mountain View, CA). The structural parameters, including the absorption rate constant (ka), distribution volume of the central compartment (Vc), distribution volume of the peripheral compartment (Vp), total body clearance (CLtot), and distribution clearance (CLD2), and the secondary parameters including the maximum concentration (Cmax), time to maximum concentration (Tmax), distribution half-life (t1/2α), elimination half-life (t1/2β), and the area under the plasma concentration–time curve (AUC) were calculated. The bioavailability (F) was calculated using the following equation: F=AUCintraduodenal/Doseintraduodenal/AUCintravenous/Doseintravenous, where Dose represents the administered dosage.
(§5) All values are represented by the mean ± standard error (SE). Statistical differences of the means were assumed to be significant when p < 0.05 by the Mann–Whitney U test.

[2] = Pharmacokinetics of VCM after intraduodenal administration to control and PN rats; details: for F (bioavailability): 20 mg/kg intraduodenal vs 5 mg/kg intravenous, dose-normalised AUC ratio; for ka (absorption rate constant) / CLD2/F / Cmax (maximum concentration) / Vc/F / Vp/F / t1/2α (distribution half-life) / t1/2β (elimination half-life) / CLtot/F: 20 mg/kg intraduodenal, two-compartment model with first-order absorption, plasma LC/MS/MS; for ka (absorption rate constant): pylorus ligated
Description: as §1, §2, §3, §4, §5

[3] = design: method as in Kusama et al. [1998]; details: binding to plasma proteins; ref Kusama et al. [1998]; cited from earlier work
[4] = PN rats (parenteral nutrition for 9 days), mean of n = 4
[5] = PN rats (parenteral nutrition for 9 days), mean of n = 4, p<0.05 vs control

For `CN[C@H](CC(C)C)C(=O)N[C@H]1C(=O)N[C@@H](CC(N)=O)C(=O)N[C@H]2C(=O)N[C@H]3C(=O)N[C@H](C(=O)N[C@H](C(=O)O)c4cc(O)cc(O)c4-c4cc3ccc4O)[C@H](O)c3ccc(c(Cl)c3)Oc3cc2cc(c3O[C@@H]2O[C@H](CO)[C@@H](O)[C@H](O)[C@H]2O[C@H]2C[C@](C)(N)[C@H](O)[C@H](C)O2)Oc2ccc(cc2Cl)[C@H]1O` [VCM, vancomycin], the “AUC (area under the plasma concentration vs time curve)” value [1, 4] was 807 µg·min/mL, the “CLD2 (distribution clearance)” value [1, 4] was 4.23 mL/min/kg and the “CLtot (total body clearance)” value [1, 4] was 6.22 mL/min/kg. The “Vc (distribution volume of the central compartment)” value [1, 4] was 0.234 L/kg, the “Vp (distribution volume of the peripheral compartment)” value [1, 4] was 0.223 L/kg and the “t1/2α (distribution half-life)” value [1, 4] was 13.72 min. The “Vc (distribution volume of the central compartment)” value ([1]; control rats (sham, saline), male Wistar, mean of n = 4 (SE in own column)) was 0.214 L/kg, the “AUC (area under the plasma concentration vs time curve)” value ([1]; control rats, mean of n = 4) was 788 µg·min/mL and the “CLD2 (distribution clearance)” value ([1]; control rats, mean of n = 4) was 6.26 mL/min/kg. For the same compound, the “CLtot (total body clearance)” value ([1]; control rats, mean of n = 4) was 6.44 mL/min/kg, the “Vp (distribution volume of the peripheral compartment)” value ([1]; control rats, mean of n = 4) was 0.283 L/kg and the “t1/2α (distribution half-life)” value ([1]; control rats, mean of n = 4) was 9.72 min. The “F (bioavailability)” value [2, 5] was 1.295%, the “ka (absorption rate constant)” value [2, 4] was 0.256 min⁻¹ and the CLD2/F [2, 4] was 1360 mL/min/kg. The “Cmax (maximum concentration)” value [2, 4] was 267 ng/mL, the Vc/F [2, 4] was 89 L/kg and the Vp/F [2, 4] was 29 L/kg. The “t1/2α (distribution half-life)” value [2, 4] was 26.2 min, the “t1/2β (elimination half-life)” value [2, 4] was 150 min and the CLtot/F [2, 5] was 590 mL/min/kg. The “ka (absorption rate constant)” value ([2]; control rats (sham, saline), mean of n = 4) was 0.214 min⁻¹, the “F (bioavailability)” value ([2]; control rats, mean of n = 4) was 0.504% and the CLD2/F ([2]; control rats, mean of n = 4) was 2050 mL/min/kg. For the same compound, the CLtot/F ([2]; control rats, mean of n = 4) was 1340 mL/min/kg, the “Cmax (maximum concentration)” value ([2]; control rats, mean of n = 4) was 111 ng/mL and the Vc/F ([2]; control rats, mean of n = 4) was 158 L/kg. The Vp/F ([2]; control rats, mean of n = 4) was 107 L/kg, the “t1/2α (distribution half-life)” value ([2]; control rats, mean of n = 4) was 31.4 min and the “t1/2β (elimination half-life)” value ([2]; control rats, mean of n = 4) was 174 min. The protein binding rate [3] was “approximately 47%”.

Source: publication PMC4546118 (SpringerPlus, 2015)
